Laboratory results taken from ChEMBL document CHEMBL1201862, “PubChem BioAssay data set” (2004).
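Tested at 5 concentrations; 48 h exposure; 96-well plates; endpoints linearly interpolated, else capped at highest concentration. At the GI50, growth is halved.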 Activity calls are given as the source filed them. Rule as the data show it: active = GI50 up to about 1.1 µM and inactive = higher.

Columns and labels:
Assay in all cases: inhibition of tumour cell growth, NCI panel, 48 h
SK-MEL-5 = test system: SK-MEL-5
DMS-114 = test system: DMS-114
SK-MEL-2 = test system: SK-MEL-2
K562 = test system: K562
UO-31 = test system: UO-31
IGROV-1 = test system: IGROV-1
OVCAR-3 = test system: OVCAR-3
RPMI-8226 = test system: RPMI-8226
SW-620 = test system: SW-620
KM-20L2 = test system: KM-20L2
HCT-116 = test system: HCT-116
NCI-H226 = test system: NCI-H226
DLD-1 = test system: DLD-1
U-251 = test system: U-251
A498 = test system: A498
M19-MEL = test system: M19-MEL
OVCAR-8 = test system: OVCAR-8
OVCAR-4 = test system: OVCAR-4
SF-295 = test system: SF-295
UACC-62 = test system: UACC-62
COLO 205 = test system: COLO 205
LOX IMVI = test system: LOX IMVI
ACHN = test system: ACHN
LXFL 529 = test system: LXFL 529
SNB-75 = test system: SNB-75
HL-60 = test system: HL-60
HCT-15 = test system: HCT-15
SR = test system: SR
TK-10 = test system: TK-10
786-0 = test system: 786-0
HCC 2998 = test system: HCC 2998
NCI-H23 = test system: NCI-H23
EKVX = test system: EKVX
HT-29 = test system: HT-29
SNB-19 = test system: SNB-19
SN12C = test system: SN12C
SF-268 = test system: SF-268
RXF 631 = test system: RXF 631
DMS-273 = test system: DMS-273
MOLT-4 = test system: MOLT-4
HOP-62 = test system: HOP-62
Malme-3M = test system: Malme-3M
M14 = test system: M14
SF-539 = test system: SF-539
SK-MEL-28 = test system: SK-MEL-28
UACC-257 = test system: UACC-257
NCI-H460 = test system: NCI-H460
CCRF-CEM = test system: CCRF-CEM
RXF 393 = test system: RXF 393
A549 = test system: A549
HOP-92 = test system: HOP-92
SNB-78 = test system: SNB-78
SK-OV-3 = test system: SK-OV-3
KM12 = test system: KM12
NCI-H522 = test system: NCI-H522
OVCAR-5 = test system: OVCAR-5

O=C(/C=C/c1ccc(OCCCOc2ccc(/C=C/C(=O)c3ccccc3)cc2)cc1)c1ccccc1
GI50 (SK-MEL-5): > 100 µM (inactive)
GI50 (DMS-114): > 100 µM (inactive)
GI50 (SK-MEL-2): > 100 µM (inactive)
GI50 (K562): > 100 µM (inactive)
GI50 (UO-31): > 100 µM (inactive)
GI50 (IGROV-1): > 100 µM (inactive)
GI50 (OVCAR-3): > 100 µM (inactive)
GI50 (RPMI-8226): 50.7 µM (inactive)
GI50 (SW-620): > 100 µM (inactive)
GI50 (KM-20L2): > 100 µM (inactive)
GI50 (HCT-116): 77.4 µM (inactive)
GI50 (NCI-H226): 36.3 µM (inactive)
GI50 (DLD-1): > 100 µM (inactive)
GI50 (U-251): > 10 µM (inactive)
GI50 (A498): > 100 µM (inactive)
GI50 (M19-MEL): > 100 µM (inactive)
GI50 (OVCAR-8): > 100 µM (inactive)
GI50 (OVCAR-4): > 100 µM (inactive)
GI50 (SF-295): > 100 µM (inactive)
GI50 (UACC-62): > 100 µM (inactive)
GI50 (COLO 205): > 100 µM (inactive)
GI50 (LOX IMVI): > 100 µM (inactive)
GI50 (ACHN): > 100 µM (inactive)
GI50 (LXFL 529): > 100 µM (inactive)
GI50 (SNB-75): 33.4 µM (inactive)
GI50 (HL-60): > 100 µM (inactive)
GI50 (HCT-15): > 100 µM
GI50 (SR): > 100 µM (inactive)
GI50 (TK-10): > 100 µM (inactive)
GI50 (786-0): 57.4 µM (inactive)
GI50 (HCC 2998): > 100 µM (inactive)
GI50 (NCI-H23): > 100 µM (inactive)
GI50 (EKVX): > 100 µM (inactive)
GI50 (HT-29): > 100 µM (inactive)
GI50 (SNB-19): 63.2 µM (inactive)
GI50 (SN12C): > 100 µM (inactive)
GI50 (SF-268): > 100 µM (inactive)
GI50 (RXF 631): 51.2 µM (inactive)
GI50 (DMS-273): > 100 µM (inactive)
GI50 (MOLT-4): > 100 µM (inactive)
GI50 (HOP-62): > 100 µM (inactive)
GI50 (Malme-3M): > 100 µM (inactive)
GI50 (M14): > 100 µM (inactive)
GI50 (SF-539): > 100 µM (inactive)
GI50 (SK-MEL-28): > 100 µM (inactive)
GI50 (UACC-257): > 100 µM (inactive)
GI50 (NCI-H460): > 100 µM (inactive)
GI50 (CCRF-CEM): > 100 µM (inactive)
GI50 (RXF 393): > 100 µM (inactive)
GI50 (A549): > 100 µM (inactive)

COc1ccc(C(=O)O)c2c(=O)c3cccnc3[nH]c12
GI50 (DMS-114): > 100 µM (inactive)
GI50 (UO-31): > 100 µM (inactive)
GI50 (IGROV-1): > 100 µM (inactive)
GI50 (HOP-92): > 100 µM (inactive)
GI50 (KM-20L2): > 100 µM (inactive)
GI50 (SNB-78): > 100 µM (inactive)
GI50 (HCT-116): > 100 µM (inactive)
GI50 (U-251): > 100 µM (inactive)
GI50 (A498): > 100 µM (inactive)
GI50 (SK-OV-3): > 100 µM (inactive)
GI50 (M19-MEL): > 100 µM (inactive)
GI50 (OVCAR-8): > 100 µM (inactive)
GI50 (SF-295): > 100 µM (inactive)
GI50 (UACC-62): 46.1 µM (inactive)
GI50 (ACHN): > 100 µM (inactive)
GI50 (KM12): > 100 µM (inactive)
GI50 (HL-60): > 100 µM (inactive)
GI50 (SR): > 100 µM (inactive)
GI50 (TK-10): > 100 µM (inactive)
GI50 (NCI-H23): > 100 µM (inactive)
GI50 (EKVX): > 100 µM (inactive)
GI50 (HT-29): > 100 µM (inactive)
GI50 (NCI-H522): > 100 µM (inactive)
GI50 (SNB-19): > 100 µM (inactive)
GI50 (RXF 631): > 100 µM (inactive)
GI50 (MOLT-4): > 100 µM (inactive)
GI50 (HOP-62): > 100 µM (inactive)
GI50 (M14): > 100 µM (inactive)
GI50 (OVCAR-5): > 100 µM (inactive)
GI50 (SK-MEL-28): > 100 µM (inactive)
GI50 (UACC-257): > 100 µM (inactive)
GI50 (NCI-H460): > 100 µM (inactive)
GI50 (CCRF-CEM): > 100 µM (inactive)
GI50 (RXF 393): > 100 µM (inactive)
GI50 (A549): > 100 µM (inactive)
